Assay results taken from patent US20250304596A1, “PYRAZINE DERIVATIVES AND USES THEREOF” (FOGHORN THERAPEUTICS INC., priority 2022, published 2025).

How the values were obtained:
HiBit-BRM fusion protein = target: T1, HiBit-BRM fusion protein (Homo sapiens, UniProt P51531); experiment: HiBiT-BRM cell-based degradation assay (Nano-Glo HiBiT Lytic Detection, 24 h); settings: stable HeLa cell line expressing HiBiT-BRM; for DC50: read-out: BRM HiBit Degradation IC50
T1 construct: expressed in transfected cells
Outline: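 A stable HeLa line expressing HiBiT-BRM was treated for 24 h with compound in a 10-point, 3-fold series (30 μM final top dose). Remaining HiBiT-BRM was read by lytic LgBiT complementation luminescence. % degradation was normalised to DMSO (high control) and 2 μM reference BRM/BRG1 degrader (low control).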

[1] = target: T2, HiBit-BRG1 fusion protein (Homo sapiens, UniProt P51532); experiment: HiBiT-BRG1 cell-based degradation assay (Nano-Glo HiBiT Lytic Detection, 24 h); settings: stable HeLa cell line expressing HiBit-BRG1 and LgBit; for Dmax: read-out: BRG1 HiBit Degradation Maximum (%); for DC50: read-out: BRMG1 HiBit Degradation IC50
T2 construct: expressed in transfected cells
Outline: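 HeLa cells stably expressing HiBit-BRG1 and LgBit, treated 24 h with 3-fold dilutions (10 points, duplicate, 30 μM final top dose). Luminescence read after Nano-Glo HiBiT lytic reagent; % degradation scaled between DMSO (high) and 2 μM reference BRM/BRG1 degrader (low control).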

T1 sequence (P51531 whole entry, the tested form may be a part): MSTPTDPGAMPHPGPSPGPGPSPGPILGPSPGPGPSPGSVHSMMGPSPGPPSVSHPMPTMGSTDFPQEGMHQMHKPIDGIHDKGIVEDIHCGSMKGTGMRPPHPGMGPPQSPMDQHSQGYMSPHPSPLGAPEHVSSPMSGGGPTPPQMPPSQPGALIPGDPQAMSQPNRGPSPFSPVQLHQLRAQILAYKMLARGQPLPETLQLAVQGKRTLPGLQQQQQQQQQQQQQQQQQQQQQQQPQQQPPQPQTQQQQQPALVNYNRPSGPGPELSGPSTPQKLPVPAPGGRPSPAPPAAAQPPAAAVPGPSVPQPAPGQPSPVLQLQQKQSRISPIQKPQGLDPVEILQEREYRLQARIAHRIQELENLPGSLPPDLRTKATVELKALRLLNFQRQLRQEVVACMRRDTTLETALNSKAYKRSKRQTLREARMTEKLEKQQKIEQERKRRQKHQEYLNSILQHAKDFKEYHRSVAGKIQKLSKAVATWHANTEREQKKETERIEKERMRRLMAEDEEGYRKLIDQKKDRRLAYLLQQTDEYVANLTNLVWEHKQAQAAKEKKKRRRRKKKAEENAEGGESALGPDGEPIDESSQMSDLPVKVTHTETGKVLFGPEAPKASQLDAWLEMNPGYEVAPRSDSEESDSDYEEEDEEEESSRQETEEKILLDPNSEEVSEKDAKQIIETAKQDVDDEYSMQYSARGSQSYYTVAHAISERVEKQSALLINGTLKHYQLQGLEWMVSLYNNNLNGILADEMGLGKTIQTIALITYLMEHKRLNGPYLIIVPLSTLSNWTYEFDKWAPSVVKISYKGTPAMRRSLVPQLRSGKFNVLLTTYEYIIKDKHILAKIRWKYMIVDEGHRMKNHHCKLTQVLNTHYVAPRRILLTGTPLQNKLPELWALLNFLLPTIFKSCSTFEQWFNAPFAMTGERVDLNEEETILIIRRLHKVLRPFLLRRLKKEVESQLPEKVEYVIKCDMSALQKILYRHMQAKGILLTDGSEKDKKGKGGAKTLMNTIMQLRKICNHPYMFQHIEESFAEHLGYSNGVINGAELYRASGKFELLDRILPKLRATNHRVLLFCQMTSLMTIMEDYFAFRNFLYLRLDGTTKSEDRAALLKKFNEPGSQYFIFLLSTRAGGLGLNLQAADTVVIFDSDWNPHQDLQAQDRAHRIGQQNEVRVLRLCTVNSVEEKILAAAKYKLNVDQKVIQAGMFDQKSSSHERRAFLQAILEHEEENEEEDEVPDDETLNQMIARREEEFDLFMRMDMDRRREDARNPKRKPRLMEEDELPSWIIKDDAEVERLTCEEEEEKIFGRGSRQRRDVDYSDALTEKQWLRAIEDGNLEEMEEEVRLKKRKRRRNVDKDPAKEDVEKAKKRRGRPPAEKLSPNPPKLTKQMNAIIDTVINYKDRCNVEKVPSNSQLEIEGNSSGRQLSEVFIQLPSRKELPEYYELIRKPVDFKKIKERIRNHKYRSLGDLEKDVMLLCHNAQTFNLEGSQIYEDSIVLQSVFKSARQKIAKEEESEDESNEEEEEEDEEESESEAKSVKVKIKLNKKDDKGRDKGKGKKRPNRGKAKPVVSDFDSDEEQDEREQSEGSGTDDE
T2 sequence (P51532 whole entry, the tested form may be a part): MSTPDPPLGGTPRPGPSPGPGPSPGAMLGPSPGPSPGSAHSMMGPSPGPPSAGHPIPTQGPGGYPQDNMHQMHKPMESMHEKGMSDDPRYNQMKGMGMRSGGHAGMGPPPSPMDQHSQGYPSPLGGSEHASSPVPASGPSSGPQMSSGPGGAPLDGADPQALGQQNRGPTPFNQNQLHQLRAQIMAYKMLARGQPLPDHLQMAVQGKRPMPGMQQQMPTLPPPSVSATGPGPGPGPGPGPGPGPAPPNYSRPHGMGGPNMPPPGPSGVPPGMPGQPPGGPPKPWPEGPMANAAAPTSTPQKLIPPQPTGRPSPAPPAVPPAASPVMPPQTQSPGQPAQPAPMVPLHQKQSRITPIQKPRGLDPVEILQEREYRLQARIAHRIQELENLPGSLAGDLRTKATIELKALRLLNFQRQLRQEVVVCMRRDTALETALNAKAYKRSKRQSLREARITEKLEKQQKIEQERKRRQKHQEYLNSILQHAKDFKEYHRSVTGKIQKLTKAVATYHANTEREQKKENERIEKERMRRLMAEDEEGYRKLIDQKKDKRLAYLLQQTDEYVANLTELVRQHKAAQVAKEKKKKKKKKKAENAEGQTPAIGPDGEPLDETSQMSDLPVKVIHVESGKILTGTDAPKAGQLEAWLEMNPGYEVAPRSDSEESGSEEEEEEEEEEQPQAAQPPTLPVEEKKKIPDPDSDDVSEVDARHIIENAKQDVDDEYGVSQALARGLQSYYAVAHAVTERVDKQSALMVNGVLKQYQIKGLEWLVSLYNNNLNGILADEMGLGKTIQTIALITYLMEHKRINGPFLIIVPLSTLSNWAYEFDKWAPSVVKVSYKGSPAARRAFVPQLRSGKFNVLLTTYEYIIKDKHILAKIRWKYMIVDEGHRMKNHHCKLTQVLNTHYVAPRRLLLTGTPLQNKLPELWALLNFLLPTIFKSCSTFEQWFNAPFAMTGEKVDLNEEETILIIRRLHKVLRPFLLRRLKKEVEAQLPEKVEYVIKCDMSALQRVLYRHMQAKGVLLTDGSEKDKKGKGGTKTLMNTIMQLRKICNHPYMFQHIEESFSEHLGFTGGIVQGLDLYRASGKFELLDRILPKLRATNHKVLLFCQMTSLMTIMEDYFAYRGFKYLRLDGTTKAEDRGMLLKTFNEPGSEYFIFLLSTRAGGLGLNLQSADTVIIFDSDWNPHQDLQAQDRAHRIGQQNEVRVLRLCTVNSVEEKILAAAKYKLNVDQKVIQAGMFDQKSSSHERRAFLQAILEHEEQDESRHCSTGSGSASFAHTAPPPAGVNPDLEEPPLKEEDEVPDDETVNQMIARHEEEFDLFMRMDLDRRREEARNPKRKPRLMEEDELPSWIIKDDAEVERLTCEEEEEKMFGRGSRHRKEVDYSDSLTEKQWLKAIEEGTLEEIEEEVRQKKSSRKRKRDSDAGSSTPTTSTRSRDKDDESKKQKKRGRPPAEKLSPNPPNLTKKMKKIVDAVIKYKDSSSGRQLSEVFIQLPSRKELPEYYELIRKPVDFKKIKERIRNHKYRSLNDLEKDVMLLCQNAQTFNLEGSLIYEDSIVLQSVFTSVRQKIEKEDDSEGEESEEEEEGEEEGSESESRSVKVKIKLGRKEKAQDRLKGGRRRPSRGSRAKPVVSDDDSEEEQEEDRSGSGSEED

Structure (SMILES)	BRM HiBit Degradation Maximum (%) (HiBit-BRM fusion protein)	DC50 (HiBit-BRM fusion protein)	Dmax [1]	DC50 [1]
Cc1ncsc1-c1ccc([C@H](C)NC(=O)[C@@H]2C[C@@H](O)CN2C(=O)[C@@H](c2cc(-c3cnc(N4CC5(CC(c6cc7nnc(-c8ccccc8O)cc7s6)C5)C4)nc3)no2)C(C)C)cc1 [Compound 17, (2S,4R)-4-hydroxy-1-((R)-2-(3-(2-(6-(3-(2-hydroxyphenyl)thieno[3,2-c]pyridazin-6-yl)-2-azaspiro[3.3]heptan-2-yl)pyrimidin-5-yl)isoxazol-5-yl)-3-methylbutanoyl)-N-((S)-1-(4-(4-methylthiazol-5-yl)phenyl)ethyl)pyrrolidine-2-carboxamide]	A (“A” indicates maximum degradation ≥75%)	< 10 nM	> 75%	> 10 nM
Cc1ncsc1-c1ccc([C@H](C)NC(=O)[C@@H]2C[C@@H](O)CN2C(=O)[C@@H](c2cc(-c3c(C)nc(N4CCC(c5sc6nnc(-c7ccccc7O)cc6c5C)CC4)nc3C)no2)C(C)C)cc1 [Compound 11, (2S,4R)-4-hydroxy-1-((R)-2-(3-(2-(4-(3-(2-hydroxyphenyl)-5-methylthieno[2,3-c]pyridazin-6-yl)piperidin-1-yl)-4,6-dimethylpyrimidin-5-yl)isoxazol-5-yl)-3-methylbutanoyl)-N-((S)-1-(4-(4-methylthiazol-5-yl)phenyl)ethyl)pyrrolidine-2-carboxamide]	A (“A” indicates maximum degradation ≥75%)	< 10 nM	> 50%	> 10 nM
Cc1ncsc1-c1ccc([C@H](C)NC(=O)[C@@H]2C[C@@H](O)CN2C(=O)[C@@H](c2cc(-c3ccc(N4CC(c5cc6cc(-c7ccccc7O)nnc6s5)C4)nn3)no2)C(C)C)cc1 [Compound 24, (2S,4R)-4-hydroxy-1-((R)-2-(3-(6-(3-(3-(2-hydroxyphenyl)thieno[2,3-c]pyridazin-6-yl)azetidin-1-yl)pyridazin-3-yl)isoxazol-5-yl)-3-methylbutanoyl)-N-((S)-1-(4-(4-methylthiazol-5-yl)phenyl)ethyl)pyrrolidine-2-carboxamide]	A (“A” indicates maximum degradation ≥75%)	> 10 nM	> 50%	> 100 nM
Cc1nc(N2CCC(c3sc4nnc(-c5ccccc5O)cc4c3C)CC2)ccc1-c1cc([C@H](C(=O)N2C[C@H](O)C[C@H]2C(=O)N[C@@H](C)c2ccc(-c3scnc3C)cc2)C(C)C)on1 [Compound 42, (2S,4R)-4-hydroxy-1-((R)-2-(3-(6-(4-(3-(2-hydroxyphenyl)-5-methylthieno[2,3-c]pyridazin-6-yl)piperidin-1-yl)-2-methylpyridin-3-yl)isoxazol-5-yl)-3-methylbutanoyl)-N-((S)-1-(4-(4-methylthiazol-5-yl)phenyl)ethyl)pyrrolidine-2-carboxamide]	A (“A” indicates maximum degradation ≥75%)	< 10 nM	> 50%	> 10 nM
Cc1ncsc1-c1ccc([C@H](C)NC(=O)[C@@H]2C[C@@H](O)CN2C(=O)[C@@H](c2cc(-c3cnc(N4CC[C@@H](c5sc6nnc(-c7ccccc7O)cc6c5C)[C@H](C)C4)nc3)no2)C(C)C)cc1 [Compound 25, (2S,4R)-4-hydroxy-1-((R)-2-(3-(2-((3S,4R)-4-(3-(2-hydroxyphenyl)-5-methylthieno[2,3-c]pyridazin-6-yl)-3-methylpiperidin-1-yl)pyrimidin-5-yl)isoxazol-5-yl)-3-methylbutanoyl)-N-((S)-1-(4-(4-methylthiazol-5-yl)phenyl)ethyl)pyrrolidine-2-carboxamide]	A (“A” indicates maximum degradation ≥75%)	> 10 nM	< 50%	> 1000 nM
Cc1ncsc1-c1ccc([C@H](C)NC(=O)[C@@H]2C[C@@H](O)CN2C(=O)[C@@H](c2cc(-c3ccc(N4CCC(c5cc6cc(-c7ccccc7O)nnc6s5)CC4)nn3)no2)C(C)C)cc1 [Compound 33, (2S,4R)-4-hydroxy-1-((R)-2-(3-(6-(4-(3-(2-hydroxyphenyl)thieno[2,3-c]pyridazin-6-yl)piperidin-1-yl)pyridazin-3-yl)isoxazol-5-yl)-3-methylbutanoyl)-N-((S)-1-(4-(4-methylthiazol-5-yl)phenyl)ethyl)pyrrolidine-2-carboxamide]	A (“A” indicates maximum degradation ≥75%)	> 10 nM	< 50%	> 1000 nM
Cc1ncsc1-c1ccc([C@H](C)NC(=O)[C@@H]2C[C@@H](O)CN2C(=O)[C@@H](c2cc(C#Cc3sc4nnc(-c5ccccc5O)cc4c3C)no2)C(C)C)cc1 (single isomer, unassigned) [Compound 37]	A (“A” indicates maximum degradation ≥75%)	> 100 nM	> 50%	> 1000 nM
Cc1ncsc1-c1ccc([C@H](C)NC(=O)[C@@H]2C[C@@H](O)CN2C(=O)[C@@H](c2cc(-c3cnc(N4CCC(c5sc6nnc(-c7cccc(Cl)c7O)cc6c5C)CC4)nc3)no2)C(C)C)cc1 [Compound 29, (2S,4R)-1-((R)-2-(3-(2-(4-(3-(3-chloro-2-hydroxyphenyl)-5-methylthieno[2,3-c]pyridazin-6-yl)piperidin-1-yl)pyrimidin-5-yl)isoxazol-5-yl)-3-methylbutanoyl)-4-hydroxy-N-((S)-1-(4-(4-methylthiazol-5-yl)phenyl)ethyl)pyrrolidine-2-carboxamide]	C (“C” indicates maximum degradation <50%)	> 1000 nM	< 50%	> 1000 nM
Cc1ncsc1-c1ccc([C@H](C)NC(=O)[C@@H]2C[C@@H](O)CN2C(=O)[C@@H](c2cc(N3CCC(c4cnc(N5CCC(c6sc7nnc(-c8ccccc8O)cc7c6C)CC5)nc4)CC3)no2)C(C)C)cc1 (single isomer, unassigned) [Compound 60]	A (“A” indicates maximum degradation ≥75%)	< 10 nM	> 50%	> 10 nM
Cc1ncsc1-c1ccc([C@H](C)NC(=O)[C@@H]2C[C@@H](O)CN2C(=O)[C@@H](c2cc(-c3cnc(N4CCC5(CC4)CC(c4sc6nnc(-c7ccccc7O)cc6c4C)C5)nc3)no2)C(C)C)cc1 [Compound 48, (2S,4R)-4-hydroxy-1-((R)-2-(3-(2-(2-(3-(2-hydroxyphenyl)-5-methylthieno[2,3-c]pyridazin-6-yl)-7-azaspiro[3.5]nonan-7-yl)pyrimidin-5-yl)isoxazol-5-yl)-3-methylbutanoyl)-N-((S)-1-(4-(4-methylthiazol-5-yl)phenyl)ethyl)pyrrolidine-2-carboxamide]	A (“A” indicates maximum degradation ≥75%)	> 10 nM	< 50%	> 1000 nM
Cc1ncsc1-c1ccc([C@H](C)NC(=O)[C@@H]2C[C@@H](O)CN2C(=O)[C@@H](c2cc(-c3ccc(N4CCC(c5sc6nnc(-c7ccccc7O)cc6c5C)CC4)cn3)no2)C(C)C)cc1 [Compound 34, (2S,4R)-4-hydroxy-1-((R)-2-(3-(5-(4-(3-(2-hydroxyphenyl)-5-methylthieno[2,3-c]pyridazin-6-yl)piperidin-1-yl)pyridin-2-yl)isoxazol-5-yl)-3-methylbutanoyl)-N-((S)-1-(4-(4-methylthiazol-5-yl)phenyl)ethyl)pyrrolidine-2-carboxamide]	A (“A” indicates maximum degradation ≥75%)	< 10 nM	< 50%	> 1000 nM
Cc1nc(N2CC[C@@H](c3sc4nnc(-c5ccccc5O)cc4c3C)C2)ccc1-c1cc([C@H](C(=O)N2C[C@H](O)C[C@H]2C(=O)N[C@@H](C)c2ccc(-c3scnc3C)cc2)C(C)C)on1 [Compound 94, (2S,4R)-4-hydroxy-1-((R)-2-(3-(6-((R)-3-(3-(2-hydroxyphenyl)-5-methylthieno[2,3-c]pyridazin-6-yl)pyrrolidin-1-yl)-2-methylpyridin-3-yl)isoxazol-5-yl)-3-methylbutanoyl)-N-((S)-1-(4-(4-methylthiazol-5-yl)phenyl)ethyl)pyrrolidine-2-carboxamide]	A (“A” indicates maximum degradation ≥75%)	> 10 nM	< 50%	–
Cc1ncsc1-c1ccc([C@H](C)NC(=O)[C@@H]2C[C@@H](O)CN2C(=O)[C@@H](c2cc(-c3cnc(N4CC[C@@H](c5sc6nnc(-c7ccccc7O)cc6c5C5CC5)C4)nc3)no2)C(C)C)cc1 [Compound 75, (2S,4R)-1-((R)-2-(3-(2-((R)-3-(5-cyclopropyl-3-(2-hydroxyphenyl)thieno [2,3-c]pyridazin-6-yl)pyrrolidin-1-yl)pyrimidin-5-yl)isoxazol-5-yl)-3-methylbutanoyl)-4-hydroxy-N-((S)-1-(4-(4-methylthiazol-5-yl)phenyl)ethyl)pyrrolidine-2-carboxamide]	B (“B” indicates maximum degradation ≥50%)	> 10 nM	< 50%	–
Cc1ncsc1-c1ccc([C@H](C)NC(=O)[C@@H]2C[C@@H](O)CN2C(=O)[C@@H](c2cc(N3CCC4(CC3)CC(c3sc5nnc(-c6ccccc6O)cc5c3C)C4)no2)C(C)C)cc1 [Compound 45, (2S,4R)-4-hydroxy-1-((R)-2-(3-(2-(3-(2-hydroxyphenyl)-5-methylthieno[2,3-c]pyridazin-6-yl)-7-azaspiro[3.5]nonan-7-yl)isoxazol-5-yl)-3-methylbutanoyl)-N-((S)-1-(4-(4-methylthiazol-5-yl)phenyl)ethyl)pyrrolidine-2-carboxamide]	A (“A” indicates maximum degradation ≥75%)	> 10 nM	< 50%	> 1000 nM
